Literature values, collected in patent US6350369B1, “Method and system for determining analyte activity” (California Institute of Technology, priority 1998, dated 2002).

System: cytochrome P-450
Conditions: cytochrome P-450 aniline p-hydroxylation inhibition, in words

Compound: OCc1ccccc1 [benzyl alcohol]
- inhibitory activity compared with QSAR prediction: higher activity than is predicted
